This experiment deals with T1, p38alpha (Homo sapiens, UniProt Q16539).
T1 construct: purchased Invitrogen PV3304
The experiment can be described thus: P38alpha Enzyme Inhibition Assay (Alphascreen kinase activity assay). In kind it is biochemical. The settings on record: 100 pM p38alpha, ATF-2 fusion protein substrate, 250 μM ATP, 2 hours preincubation at 25° C.; read-out: p38α inhibition. The procedure: P38alpha Enzyme Inhibition Assay
The inhibitory activity of compounds was determined using an Alphascreen® (Perkin Elmer) based kinase activity assay. Kinase reactions consisted of 25 mM HEPES pH 7.5, 10 mM MgCl2, 100 μM Na3VO4, 2 mM DTT, 0.05 mg/ml Tween 20, 100 pM p38alpha (Invitrogen, PV3304), 1% DMSO and 0.3 μg/ml ATF-2 fusion protein (New England Biolabs, 9224). Compounds were incubated under these conditions for 2 hours, at 25° C., prior to the initiation of the kinase activity by the addition of the 250 μM ATP. Reaction volumes were 20 uL. After 1 hr at 25° C. reactions were stopped by the adding 10 uL of 25 mM HEPES pH 7.5 containing 62.5 mM EDTA, 0.05% Triton X-100, 10% BSA and 0.83 ng/uL anti-phospho-ATF2 antibody (Abcam, ab28812). Detection was performed by measuring luminescence following the addition of Alphascreen Donor beads (Perkin Elmer 6765300) and Protein A Alphascreen Acceptor beads (Perkin Elmer 6760137), both at a final concentration of 20 ug/ml. IC50 values were determined from concentration-response curves.
In general terms: In Alpha technology, singlet oxygen from a donor bead excites a nearby acceptor bead.

T1 sequence (Q16539 whole entry): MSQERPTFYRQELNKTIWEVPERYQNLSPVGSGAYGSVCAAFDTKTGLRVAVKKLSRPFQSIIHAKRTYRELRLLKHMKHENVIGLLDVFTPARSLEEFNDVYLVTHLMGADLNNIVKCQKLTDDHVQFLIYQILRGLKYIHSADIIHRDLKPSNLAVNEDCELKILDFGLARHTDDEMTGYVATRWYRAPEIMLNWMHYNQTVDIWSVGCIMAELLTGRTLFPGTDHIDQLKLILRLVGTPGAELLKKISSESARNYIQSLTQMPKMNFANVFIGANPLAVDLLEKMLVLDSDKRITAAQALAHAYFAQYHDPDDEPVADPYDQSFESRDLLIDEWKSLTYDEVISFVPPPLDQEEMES

For the compound `CC(C)c1nnc2ccc(O[C@@H]3CC[C@H](NC(=O)NC4CC4)c4ccccc43)cn12` [Example 13, 1-Cyclopropyl-3-[(1S,4R)-4-(3-isopropyl-[1,2,4]triazolo[4,3-a]pyridin-6-yloxy)-1,2,3,4-tetrahydro-naphthalen-1-yl]-urea], the IC50 was in the range of 10 to 100 nM.

As for `CC(C)c1nnc2ccc(O[C@H]3CC[C@H](NC(=O)Nc4cc(C(C)(C)C)nn4-c4ccc(O)c(Cl)c4)c4ccccc43)cn12` [Example 25, 1-[5-tert-Butyl-2-(3-chloro-4-hydroxy-phenyl)-2H-pyrazol-3-yl]-3-[(1S,4S)-4-(3-isopropyl-[1,2,4]triazolo[4,3-a]pyridin-6-yloxy)-1,2,3,4-tetrahydro-naphthalen-1-yl]-urea], the IC50 is below 10 nM.

Turning to `Cc1ccc(-n2nc(C(C)(C)C)cc2NC(=O)N[C@H]2CC[C@@H](Oc3ccc4nnc(C5CC5)n4c3)c3ccccc32)cc1` [Example 21, 1-(5-tert-Butyl-2-p-tolyl-2H-pyrazol-3-yl)-3-[(1S,4R)-4-(3-cyclopropyl-[1,2,4]triazolo[4,3-a]pyridin-6-yloxy)-1,2,3,4-tetrahydro-naphthalen-1-yl}-urea], the IC50 is below 10 nM.

As to `Cc1ccc(-n2nc(C(C)(C)C)cc2NC(=O)N[C@H]2CC[C@@H](Oc3ccc4nnc(-c5ccccc5OCc5ccccc5)n4c3)c3ccccc32)cc1` [Example 24, 1-{(1S,4R)-4-[3-(2-Benzyloxy-phenyl)-[1,2,4]triazolo[4,3-a]pyridin-6-yloxy)-1,2,3,4-tetrahydro-naphthalen-1-yl}-3-(5-tert-butyl-2-p-tolyl-2H-pyrazol-3-yl)-urea], the IC50 is below 10 nM.

As to `Cc1ccc(-n2nc(C(C)(C)C)cc2NC(=O)N[C@H]2CC[C@@H](Oc3ccc4nnc(-c5cccc(OCCN6CCOCC6)c5)n4c3)c3ccccc32)cc1` [Example 4, 1-(5-tert-Butyl-2-p-tolyl-2H-pyrazol-3-yl)-3-[(1S,4R)-4-{3-[3-(2-morpholin-4-yl-ethoxy)-phenyl]-[1,2,4]triazolo[4,3-a]pyridin-6-yloxy}-1,2,3,4-tetrahydro-naphthalen-1-yl)-urea], the IC50 is below 10 nM.

`CC(C)c1nnc2ccc(O[C@H]3CC[C@H](NC(=O)NC4CC4)c4ccccc43)cn12` [Example 2, 1-Cyclopropyl-3-[(1S,4S)-4-(3-isopropyl-[1,2,4]triazolo[4,3-a]pyridin-6-yloxy)-1,2,3,4-tetrahydro-naphthalen-1-yl]-urea]: the IC50 was below 10 nM.

Consider `CC(C)c1nnc2ccc(O[C@H]3C[C@H](NC(=O)Nc4cc(C(C)(C)C)on4)c4ccccc43)cn12` [Example 8, 1-(5-tert-Butyl-isoxazol-3-yl)-3-[(1S,3S)-3-(3-isopropyl-[1,2,4]triazolo[4,3-a]pyridin-6-yloxy)-indan-1-yl]-urea], for which the IC50 was below 10 nM.

For `Cc1ccc(-n2nc(C(C)(C)C)cc2NC(=O)N[C@H]2CC[C@@H](Oc3ccn4c(C(C)C)nnc4c3)c3ccccc32)cc1` [Example 5, 1-(5-tert-Butyl-2-p-tolyl-2H-pyrazol-3-yl)-3-[(1S,4R)-4-(3-isopropyl-[1,2,4]triazolo[4,3-a]pyridin-7-yloxy)-1,2,3,4-tetrahydro-naphthalen-1-yl]-urea], the IC50 was below 10 nM.

Take `CC(C)c1nnc2ccc(O[C@@H]3CC[C@H](NC(=O)Nc4cc(F)cc(N5CCOCC5)c4)c4ccccc43)cn12` [Example 29, 1-(3-Fluoro-5-morpholin-4-yl-phenyl)-3-[(1S,4R)-4-(3-isopropyl-[1,2,4]triazolo[4,3-a]pyridin-6-yloxy)-1,2,3,4-tetrahydro-naphthalen-1-yl]-urea]: the IC50 was below 10 nM.

Turning to `Cc1ccc(-n2nc(C(C)(C)C)cc2NC(=O)N[C@H]2CC[C@@H](Oc3ccc4nnc(C5CCCC5)n4c3)c3ccccc32)cc1` [Example 18, 1-(5-tert-Butyl-2-p-tolyl-2H-pyrazol-3-yl)-3-[(1S,4R)-4-(3-cyclopentyl-[1,2,4]triazolo[4,3-a]pyridin-6-yloxy)-1,2,3,4-tetrahydro-naphthalen-1-yl]-urea], the IC50 is below 10 nM.

With `Cc1ccc(-n2nc(C(C)(C)C)cc2NC(=O)N[C@H]2CC[C@@H](Oc3ccc4nnc(-c5ccccc5O)n4c3)c3ccccc32)cc1` [Example 7, 1-(5-tert-Butyl-2-p-tolyl-2H-pyrazol-3-yl)-3-{(1S,4R)-4-(3-(2-hydroxy-phenyl)-[1,2,4]triazolo[4,3-a]pyridin-6-yloxy)-1,2,3,4-tetrahydro-naphthalen-1-yl}-urea], the IC50 was below 10 nM.

As for `CC(C)c1nnc2ccc(O[C@@H]3CC[C@H](NC(=O)Nc4cc(C(C)(C)C)nn4-c4ccc(Cl)c(O)c4)c4ccccc43)cn12` [Example 14, 1-(5-tert-Butyl-2-(4-chloro-3-hydroxyphenyl)-2H-pyrazol-3-yl)-3-[(1S,4R)-4-(3-isopropyl-[1,2,4]triazolo[4,3-a]pyridin-6-yloxy)-1,2,3,4-tetrahydronaphthalen-1-yl]-urea], the IC50 was below 10 nM.

On to `CC(C)c1nnc2ccc(O[C@@H]3CC[C@H](NC(=O)Nc4cc(C(C)(C)C)nn4-c4ccc(O)c(Cl)c4)c4ccccc43)cn12` [Example 12, 1-[5-tert-Butyl-2-(3-chloro-4-hydroxy-phenyl)-2H-pyrazol-3-yl]-3-[(1S,4R)-4-(3-isopropyl-[1,2,4]triazolo[4,3-a]pyridin-6-yloxy)-1,2,3,4-tetrahydro-naphthalen-1-yl]-urea], for which the IC50 was below 10 nM.

For `COc1c(NC(=O)N[C@H]2CC[C@@H](Oc3ccc4nnc(C(C)C)n4c3)c3ccccc32)cc(C(C)(C)C)cc1NS(C)(=O)=O` [Example 28, N-(5-tert-Butyl-3-{3-[(1S,4R)-4-(3-isopropyl-[1,2,4]triazolo[4,3-a]pyridin-6-yloxy)-1,2,3,4-tetrahydro-naphthalen-1-yl]-ureido}-2-methoxy-phenyl)-methanesulfonamide], the IC50 was below 10 nM.

With `CC(C)c1nnc2ccc(O[C@H]3CC[C@H](NC(=O)Nc4cc(F)cc(N5CCOCC5)c4)c4ccccc43)cn12` [Example 30, 1-(3-Fluoro-5-morpholin-4-yl-phenyl)-3-[(1S,4S)-4-(3-isopropyl-[1,2,4]triazolo[4,3-a]pyridin-6-yloxy)-1,2,3,4-tetrahydro-naphthalen-1-yl]-urea], the IC50 is below 10 nM.

In the case of `CC(C)c1nnc2ccc(O[C@H]3CC[C@H](NC(=O)Nc4cc(C(C)(C)C)nn4-c4ccc(Cl)c(O)c4)c4ccccc43)cn12` [Example 27, 1-[5-tert-Butyl-2-(4-chloro-3-hydroxy-phenyl)-2H-pyrazol-3-yl]-3-[(1S,4S)-4-(3-isopropyl-[1,2,4]triazolo[4,3-a]pyridin-6-yloxy)-1,2,3,4-tetrahydro-naphthalen-1-yl]-urea], the IC50 was below 10 nM.

For `CC(C)c1nnc2ccc(O[C@@H]3CC[C@H](NC(=O)Nc4cc(C(C)(C)C)nn4-c4ccc(O)cc4)c4ccccc43)cn12` [Example 15, 1-[5-tert-Butyl-2-(4-hydroxy-phenyl)-2H-pyrazol-3-yl]-3-[(1S,4R)-4-(3-isopropyl-[1,2,4]triazolo[4,3-a]pyridin-6-yloxy)-1,2,3,4-tetrahydro-naphthalen-1-yl]-urea], the IC50 is below 10 nM.

For the compound `Cc1ccc(-n2nc(C(C)(C)C)cc2NC(=O)N[C@H]2CC[C@@H](Oc3ccc4nnc(-c5ccccc5SCCO)n4c3)c3ccccc32)cc1` [Example 10], the IC50 is below 10 nM.

`Cc1ccc(-n2nc(C(C)(C)C)cc2NC(=O)N[C@H]2CC[C@@H](Oc3ccc4nnc(-c5ccccc5Cl)n4c3)c3ccccc32)cc1` [Example 23]: the IC50 is below 10 nM.

For `CC(C)c1nnc2ccc(O[C@@H]3CC[C@H](NC(=O)Nc4cc(C(C)(C)C)on4)c4ccccc43)cn12` [Example 17, 1-(5-tert-Butyl-isoxazol-3-yl)-3-[(1S,4R)-4-(3-isopropyl-[1,2,4]triazolo[4,3-a]pyridin-6-yloxy)-1,2,3,4-tetrahydro-naphthalen-1-yl]-urea], the IC50 was below 10 nM.

For `Cc1ccc(-n2nc(C(C)(C)C)cc2NC(=O)N[C@H]2CC[C@@H](Oc3ccc4nnc(C(C)(C)C)n4c3)c3ccccc32)cc1` [Example 16, 1-(5-tert-Butyl-2-p-tolyl-2H-pyrazol-3-yl)-3-[(1S,4R)-4-(3-tert-butyl-[1,2,4]triazolo[4,3-a]pyridin-6-yloxy)-1,2,3,4-tetrahydro-naphthalen-1-yl]-urea], the IC50 is below 10 nM.

As for `Cc1ccc(-n2nc(C(C)(C)C)cc2NC(=O)N[C@H]2CC[C@@H](Oc3ccc4nnc(-c5c(Cl)cccc5Cl)n4c3)c3ccccc32)cc1` [Example 20], the IC50 is below 10 nM.

For `CC(C)c1nnc2ccc(O[C@@H]3CC[C@H](NC(=O)Nc4cc(C(C)(C)C)nn4-c4cccc(OCCN(C)C)c4)c4ccccc43)cn12` [Example 11, 1-{5-tert-Butyl-2-[3-(2-dimethylamino-ethoxy)-phenyl]-2H-pyrazol-3-yl}-3-[(1S,4R)-4-(3-isopropyl-[1,2,4]triazolo[4,3-a]pyridin-6-yloxy)-1,2,3,4-tetrahydro-naphthalen-1-yl]-urea], the IC50 was below 10 nM.

As for `CC(C)c1nnc2ccc(O[C@@H]3CC[C@H](NC(=O)Nc4cc(C(C)(C)C)nn4-c4ccc(F)c(CN5CCOCC5)c4)c4ccccc43)cn12` [Example 31, 1-{5-tert-Butyl-2-(4-fluoro-3-morpholin-4-ylmethyl-phenyl)-2H-pyrazol-3-yl}-3-[(1S,4R)-4-(3-isopropyl-[1,2,4]triazolo[4,3-a]pyridin-6-yloxy)-1,2,3,4-tetrahydro-naphthalen-1-yl]-urea], the IC50 was below 10 nM.

Source of the values: patent US9458154B2, “Kinase inhibitors” (Chiesi Farmaceutici S.p.A., priority 2011, dated 2016).
